Here are results for 1 compound from the NIST ThermoML archive (doi:10.1016/j.fluid.2013.07.002).

± gives the expanded uncertainty stated by the source.

The conditions of the data set: Crystal; visual observation.

On to `CCCCCCCCCCCCCCCCCCO` [1-octadecanol], for which the Normal melting temperature turned out to be 58 ± 0.39 °C.
